Where “and” joins values, the source holds several entries; their conditions need not be identical. Equal entries are not always repeated. Toxic doses and inconclusive results are not listed.
System: L1210 leukemia ip in BDF1 mice, survival T/C
Experiment: NCI In Vivo Anticancer Drug Screen. Data for tumor model L1210 Leukemia (intraperitoneal) in B6D2F1 (BDF1) mice
Settings: endpoint: mean survival time, higher = longer survival
How it was run: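 Mice bearing the transplanted tumor received compound or vehicle. Survival of the treated group was divided by that of the vehicle-treated control group to give the ratio.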

[1] = dose: 100.0 mg/kg/injection, schedule: Q01DX001 (ip), vehicle: carboxymethylcellulose (CMC)
[2] = dose: 25.0 mg/kg/injection, schedule: Q04DX003 (ip), vehicle: saline
[3] = dose: 50.0 mg/kg/injection, schedule: Q04DX003 (ip), vehicle: saline
[4] = dose: 100.0 mg/kg/injection, schedule: Q04DX002 (ip), vehicle: Klucel (hydroxypropylcellulose) (HPC)
[5] = dose: 200.0 mg/kg/injection, schedule: Q04DX002 (ip), vehicle: Klucel (hydroxypropylcellulose) (HPC)
[6] = dose: 400.0 mg/kg/injection, schedule: Q04DX002 (ip), vehicle: Klucel (hydroxypropylcellulose) (HPC)
[7] = dose: 100.0 mg/kg/injection, schedule: Q01DX009 (ip), vehicle: Klucel (hydroxypropylcellulose) (HPC)
[8] = dose: 200.0 mg/kg/injection, schedule: Q01DX009 (ip), vehicle: Klucel (hydroxypropylcellulose) (HPC)
[9] = dose: 400.0 mg/kg/injection, schedule: Q01DX009 (ip), vehicle: Klucel (hydroxypropylcellulose) (HPC)
[10] = dose: 100.0 mg/kg/injection, schedule: Q01DX001 (ip), vehicle: saline
[11] = dose: 200.0 mg/kg/injection, schedule: Q01DX001 (ip), vehicle: saline
[12] = dose: 400.0 mg/kg/injection, schedule: Q01DX001 (ip), vehicle: saline
[13] = dose: 100.0 mg/kg/injection, schedule: Q01DX001 (ip), vehicle: saline with Tween-80
[14] = dose: 200.0 mg/kg/injection, schedule: Q01DX001 (ip), vehicle: saline with Tween-80
[15] = dose: 400.0 mg/kg/injection, schedule: Q01DX001 (ip), vehicle: saline with Tween-80
[16] = dose: 100.0 mg/kg/injection, schedule: Q04DX003 (ip), vehicle: saline with Tween-80
[17] = dose: 200.0 mg/kg/injection, schedule: Q04DX003 (ip), vehicle: saline with Tween-80
[18] = dose: 400.0 mg/kg/injection, schedule: Q04DX003 (ip), vehicle: saline with Tween-80
[19] = dose: 100.0 mg/kg/injection, schedule: Q01DX009 (ip), vehicle: saline with Tween-80

CN(C)c1ccc(C(C#N)OC(=O)c2ccccc2)cc1 (stereo unspecified)
T/C [1]: 89 % of control
T/C (dose: 100.0 mg/kg/injection, schedule: Q01DX009 (ip), vehicle: carboxymethylcellulose (CMC)): 93 % of control
T/C (dose: 100.0 mg/kg/injection, schedule: Q04DX002 (ip), vehicle: carboxymethylcellulose (CMC)): 97 % of control
T/C (dose: 100.0 mg/kg/injection, schedule: Q04DX003 (ip), vehicle: carboxymethylcellulose (CMC)): 100 % of control
T/C (dose: 200.0 mg/kg/injection, schedule: Q01DX001 (ip), vehicle: carboxymethylcellulose (CMC)): 94 % of control
T/C (dose: 200.0 mg/kg/injection, schedule: Q01DX009 (ip), vehicle: carboxymethylcellulose (CMC)): 98 % of control and 90 % of control
T/C (dose: 200.0 mg/kg/injection, schedule: Q04DX002 (ip), vehicle: carboxymethylcellulose (CMC)): 97 % of control
T/C (dose: 200.0 mg/kg/injection, schedule: Q04DX003 (ip), vehicle: carboxymethylcellulose (CMC)): 89 % of control
T/C (dose: 400.0 mg/kg/injection, schedule: Q01DX001 (ip), vehicle: carboxymethylcellulose (CMC)): 91 % of control
T/C (dose: 400.0 mg/kg/injection, schedule: Q01DX009 (ip), vehicle: carboxymethylcellulose (CMC)): 98 % of control and 86 % of control
T/C (dose: 400.0 mg/kg/injection, schedule: Q04DX002 (ip), vehicle: carboxymethylcellulose (CMC)): 94 % of control
T/C (dose: 400.0 mg/kg/injection, schedule: Q04DX003 (ip), vehicle: carboxymethylcellulose (CMC)): 94 % of control

Cc1ccccc1C[P+](c1ccccc1)(c1ccccc1)c1ccccc1
T/C (dose: 12.5 mg/kg/injection, schedule: Q01DX009 (ip), vehicle: acetone): 101 % of control
T/C (dose: 12.5 mg/kg/injection, schedule: Q04DX003 (ip), vehicle: saline): 96 % of control
T/C [2]: 102 % of control
T/C [3]: 106 % of control

CCOc1cccc2c(=O)c(C(=O)O)cn(CC)c12
T/C [4]: 93 % of control
T/C [5]: 107 % of control
T/C [6]: 104 % of control

O=C1c2cccc3cccc(c23)C(=O)N1CC1CCCO1 (stereo unspecified)
T/C [7]: 94 % of control
T/C [8]: 94 % of control
T/C [9]: 87 % of control

Cc1ccnc(NC(=O)NC2CCCCC2)c1
T/C [4]: 96 % of control
T/C [5]: 101 % of control
T/C [6]: 96 % of control

Cc1cccc(NC(=O)N(CCCl)N=O)c1
T/C (dose: 2.6 mg/kg/injection, schedule: Q01DX009 (ip), vehicle: carboxymethylcellulose (CMC)): 163 % of control
T/C (dose: 4.0 mg/kg/injection, schedule: Q01DX009 (ip), vehicle: carboxymethylcellulose (CMC)): 164 % of control and 197 % of control
T/C (dose: 6.0 mg/kg/injection, schedule: Q01DX009 (ip), vehicle: carboxymethylcellulose (CMC)): 150 % of control and 192 % of control
T/C (dose: 25.0 mg/kg/injection, schedule: Q01DX001 (ip), vehicle: carboxymethylcellulose (CMC)): 101 % of control
T/C (dose: 50.0 mg/kg/injection, schedule: Q01DX001 (ip), vehicle: carboxymethylcellulose (CMC)): 86 % of control
T/C [1]: 86 % of control

O=C(O)/C=C/c1cc(Br)sc1Br
T/C [10]: 96 % of control
T/C [11]: 107 % of control
T/C [12]: 88 % of control

N#Cc1ccc(/C=C/C(=O)c2ccccc2)cc1
T/C (dose: 100.0 mg/kg/injection, schedule: Q01DX001 (ip), vehicle: Klucel (hydroxypropylcellulose) (HPC)): 95 % of control
T/C [7]: 96 % of control
T/C (dose: 200.0 mg/kg/injection, schedule: Q01DX001 (ip), vehicle: Klucel (hydroxypropylcellulose) (HPC)): 88 % of control
T/C [8]: 93 % of control
T/C [9]: 89 % of control

COC(=O)CC(O)(CC(=O)OC)C(=O)OC
T/C [7]: 93 % of control
T/C [8]: 104 % of control
T/C [9]: 93 % of control

CCOC(=O)c1ccc(NC(C)=O)o1
T/C (dose: 10.0 mg/kg/injection, schedule: Q01DX001 (ip), vehicle: carboxymethylcellulose (CMC)): 107 % of control
T/C (dose: 20.0 mg/kg/injection, schedule: Q01DX001 (ip), vehicle: carboxymethylcellulose (CMC)): 95 % of control
T/C (dose: 40.0 mg/kg/injection, schedule: Q01DX001 (ip), vehicle: carboxymethylcellulose (CMC)): 103 % of control
T/C (dose: 80.0 mg/kg/injection, schedule: Q01DX001 (ip), vehicle: carboxymethylcellulose (CMC)): 92 % of control

O=C1CCCCCCCCCC/C(=N/O)CCCO1
T/C [13]: 100 % of control
T/C [14]: 92 % of control
T/C [15]: 89 % of control

Cc1ccc(C(=O)/C=C/N2CCN(c3ccccc3)CC2)c(C)c1
T/C [16]: 100 % of control
T/C [17]: 105 % of control
T/C [18]: 98 % of control

O=C(c1ccco1)c1cc(Cl)c(Cl)cc1Cl
T/C [13]: 100 % of control
T/C [14]: 95 % of control
T/C [15]: 98 % of control

CC[N+](C)(CC)CCC[N+]1(C)CC2CC=CCC2C1 (stereo unspecified)
T/C (dose: 55.0 mg/kg/injection, schedule: Q01DX Z (ip), vehicle: saline): 103 % of control
T/C (dose: 83.0 mg/kg/injection, schedule: Q01DX Z (ip), vehicle: saline): 97 % of control
T/C (dose: 125.0 mg/kg/injection, schedule: Q01DX Z (ip), vehicle: saline): 96 % of control

CCCC(O)Cc1c[nH]c(=O)[nH]c1=O (stereo unspecified)
T/C (dose: 50.0 mg/kg/injection, schedule: Q01DX009 (ip), vehicle: saline with Tween-80): 103 % of control
T/C [19]: 98 % of control
T/C [16]: 95 % of control
T/C [17]: 98 % of control

CC(=O)Nc1c(Cl)cc2c(c1Cl)Cc1cc(N=Cc3ccc4c(c3)OCO4)ccc1-2
T/C (dose: 100.0 mg/kg/injection, schedule: Q01DX001 (ip), vehicle: other): 91 % of control
T/C (dose: 200.0 mg/kg/injection, schedule: Q01DX001 (ip), vehicle: other): 101 % of control
T/C (dose: 400.0 mg/kg/injection, schedule: Q01DX001 (ip), vehicle: other): 100 % of control

Clc1ccc(C2c3ccccc3C[n+]3ccccc32)cc1 (stereo unspecified)
T/C (dose: 6.25 mg/kg/injection, schedule: Q01DX009 (ip), vehicle: Klucel (hydroxypropylcellulose) (HPC)): 102 % of control
T/C (dose: 12.5 mg/kg/injection, schedule: Q01DX009 (ip), vehicle: Klucel (hydroxypropylcellulose) (HPC)): 104 % of control
T/C (dose: 25.0 mg/kg/injection, schedule: Q01DX009 (ip), vehicle: Klucel (hydroxypropylcellulose) (HPC)): 109 % of control
T/C (dose: 35.0 mg/kg/injection, schedule: Q01DX009 (ip), vehicle: Klucel (hydroxypropylcellulose) (HPC)): 112 % of control

CC1(Cl)C(=O)NC(=O)NC1=O
T/C [2]: 96 % of control
T/C [3]: 96 % of control

CC1=C2C(=O)c3ccccc3C2=C(C)S(=O)(=O)O1
T/C [19]: 101 % of control
T/C [16]: 98 % of control
T/C (dose: 200.0 mg/kg/injection, schedule: Q01DX009 (ip), vehicle: saline with Tween-80): 88 % of control
T/C [17]: 106 % of control
T/C (dose: 400.0 mg/kg/injection, schedule: Q01DX009 (ip), vehicle: saline with Tween-80): 94 % of control
T/C [18]: 98 % of control

C[C@H]1CC[C@@H]2[C@@H](C)[C@H]3[C@H](C[C@H]4[C@@H]5CC=C6C[C@@H](O)CC[C@]6(C)[C@H]5C[C@H](O)[C@]34C)N2C1
T/C (dose: 100.0 mg/kg/injection, schedule: Q01DX001 (sc), vehicle: steriod suspending solution): 100 % of control
T/C (dose: 200.0 mg/kg/injection, schedule: Q01DX001 (sc), vehicle: steriod suspending solution): 91 % of control
T/C (dose: 400.0 mg/kg/injection, schedule: Q01DX001 (sc), vehicle: steriod suspending solution): 91 % of control

COC(=O)c1ccccc1N(Cc1ccc(OC)c(OC)c1)S(=O)(=O)c1ccc(C)cc1
T/C [10]: 95 % of control
T/C [11]: 91 % of control
T/C [12]: 91 % of control

CC(C)(CO)NCc1ccc(Cl)c(Cl)c1
T/C [7]: 98 % of control
T/C (dose: 100.0 mg/kg/injection, schedule: Q04DX003 (ip), vehicle: saline): 106 % of control
T/C [8]: 102 % of control
T/C (dose: 200.0 mg/kg/injection, schedule: Q04DX003 (ip), vehicle: saline): 97 % of control
T/C (dose: 400.0 mg/kg/injection, schedule: Q04DX003 (ip), vehicle: saline): 97 % of control

O=C(Nc1ccc(Cl)cc1)Nc1ncn[nH]1
T/C (dose: 75.0 mg/kg/injection, schedule: Q01DX001 (ip), vehicle: carboxymethylcellulose (CMC)): 101 % of control
T/C (dose: 150.0 mg/kg/injection, schedule: Q01DX001 (ip), vehicle: carboxymethylcellulose (CMC)): 97 % of control
T/C (dose: 300.0 mg/kg/injection, schedule: Q01DX001 (ip), vehicle: carboxymethylcellulose (CMC)): 95 % of control
